From the supplement of paper PMC13207355
± gives the standard deviation of the averaged measurements.

Assays:
Conditions in all cases: exposure time: 72 h
E13 [1] = patient-derived glioblastoma stem cells of classical subtype; assay: surviving fraction (nuclei count normalised to DMSO); higher = more cells surviving (less toxic)
E21 [2] = patient-derived glioblastoma stem cells of mesenchymal subtype; assay: as above
E28 [3] = patient-derived glioblastoma stem cells of classical subtype; assay: as above
E34 [4] = patient-derived glioblastoma stem cells of proneural subtype; assay: as above
E57 [5] = patient-derived glioblastoma stem cells of mesenchymal subtype; assay: as above
FT3469 [6] = normal neural stem cell line; assay: as above
E13 [7] = assay: phenotypic distance (Euclidean, principal components) from DMSO controls (arbitrary units); higher = stronger morphological change
E21 [8] = assay: as above
E28 [9] = assay: as above
E34 [10] = assay: as above
E57 [11] = assay: as above
FT3469 [12] = assay: as above
E31 = patient-derived glioblastoma stem cells of proneural subtype; assay: as above
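For phenotypic distance (Euclidean, principal components) from DMSO controls in this document: cell Painting imaging in 384-well plates, CellProfiler features reduced to at least 20 principal components, Euclidean distance versus same-plate DMSO vehicle wells (0.1% v/v), median over six images per well.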
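For surviving fraction (nuclei count normalised to DMSO) in this document: nuclei counted by high-content imaging of Hoechst-stained cells in laminin-coated 384-well plates, relative to 0.1% DMSO vehicle wells, with staurosporine as cell-death control.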

CN1CCC(NC(=O)c2cc(-c3c(O)cc(O)cc3Oc3ccc([N+](=O)[O-])cc3)on2)CC1 [NMS-E973]
Conditions	phenotypic distance	surviving fraction
E13 [1], 4.1 nM	–	0.964 ± 0.14
E13 [1], 12.3 nM	–	0.953 ± 0.091
E13 [1], 37 nM	–	0.944 ± 0.13
E13 [1], 111.1 nM	–	0.93 ± 0.01
E13 [1], 333.3 nM	–	0.219 ± 0.06
E13 [1], 1000 nM	–	0.192 ± 0.013
E13 [1], 3000 nM	–	0.21 ± 0.015
E13 [7], 4.1 nM	0.577 ± 0.024	–
E13 [7], 12.3 nM	0.562 ± 0.12	–
E13 [7], 37 nM	0.639 ± 0.056	–
E13 [7], 111.1 nM	1.31 ± 0.59	–
E13 [7], 333.3 nM	4.489 ± 0.013	–
E13 [7], 1000 nM	5.34 ± 1	–
E13 [7], 3000 nM	5.62 ± 0.2	–
E21 [2], 4.1 nM	–	0.891 ± 0.061
E21 [2], 12.3 nM	–	0.959 ± 0.0061
E21 [2], 37 nM	–	0.926 ± 0.024
E21 [2], 111.1 nM	–	0.817 ± 0.085
E21 [2], 333.3 nM	–	0.416 ± 0.039
E21 [2], 1000 nM	–	0.257 ± 0.072
E21 [2], 3000 nM	–	0.116 ± 0.035
E21 [8], 4.1 nM	0.751 ± 0.092	–
E21 [8], 12.3 nM	0.626 ± 0.14	–
E21 [8], 37 nM	0.843 ± 0.42	–
E21 [8], 111.1 nM	1.82 ± 0.4	–
E21 [8], 333.3 nM	4.147 ± 0.0071	–
E21 [8], 1000 nM	5.3 ± 0.87	–
E21 [8], 3000 nM	5.82 ± 1.7	–
E28 [3], 4.1 nM	–	1.01 ± 0.049
E28 [3], 12.3 nM	–	0.913 ± 0.054
E28 [3], 37 nM	–	0.909 ± 0.017
E28 [3], 111.1 nM	–	0.657 ± 0.054
E28 [3], 333.3 nM	–	0.31 ± 0.068
E28 [3], 1000 nM	–	0.0561 ± 0.006
E28 [3], 3000 nM	–	0.0288 ± 0.023
E28 [9], 4.1 nM	0.607 ± 0.16	–
E28 [9], 12.3 nM	0.671 ± 0.17	–
E28 [9], 37 nM	0.573 ± 0.056	–
E28 [9], 111.1 nM	1.19 ± 0.29	–
E28 [9], 333.3 nM	2.09 ± 0.28	–
E28 [9], 1000 nM	5.08 ± 0.38	–
E28 [9], 3000 nM	6.81 ± 1.5	–
E34 [4], 4.1 nM	–	0.907 ± 0.1
E34 [4], 12.3 nM	–	0.921 ± 0.02
E34 [4], 37 nM	–	0.855 ± 0.041
E34 [4], 111.1 nM	–	0.804 ± 0.063
E34 [4], 333.3 nM	–	0.45 ± 0.024
E34 [4], 1000 nM	–	0.289 ± 0.025
E34 [4], 3000 nM	–	0.0598 ± 0.021
E34 [10], 4.1 nM	0.575 ± 0.35	–
E34 [10], 12.3 nM	0.675 ± 0.013	–
E34 [10], 37 nM	0.615 ± 0.26	–
E34 [10], 111.1 nM	1.12 ± 0.27	–
E34 [10], 333.3 nM	1.98 ± 0.084	–
E34 [10], 1000 nM	3.12 ± 0.68	–
E34 [10], 3000 nM	5.65 ± 0.52	–
E57 [5], 4.1 nM	–	0.941 ± 0.059
E57 [5], 12.3 nM	–	1.01 ± 0.059
E57 [5], 37 nM	–	0.9484 ± 0.0063
E57 [5], 111.1 nM	–	1.01 ± 0.046
E57 [5], 333.3 nM	–	0.373 ± 0.054
E57 [5], 1000 nM	–	0.0919 ± 0.032
E57 [5], 3000 nM	–	0.0144 ± 0.00078
E57 [11], 4.1 nM	0.456 ± 0.053	–
E57 [11], 12.3 nM	0.414 ± 0.15	–
E57 [11], 37 nM	0.335 ± 0.044	–
E57 [11], 111.1 nM	1.07 ± 0.68	–
E57 [11], 333.3 nM	2.57 ± 0.079	–
E57 [11], 1000 nM	3.42 ± 0.32	–
E57 [11], 3000 nM	4.94 ± 0.064	–
FT3469 [6], 4.1 nM	–	0.918 ± 0.12
FT3469 [6], 12.3 nM	–	0.951 ± 0.017
FT3469 [6], 37 nM	–	0.975 ± 0.046
FT3469 [6], 111.1 nM	–	0.798 ± 0.077
FT3469 [6], 333.3 nM	–	0.677 ± 0.067
FT3469 [6], 1000 nM	–	0.4901 ± 0.0038
FT3469 [6], 3000 nM	–	0.4 ± 0.025
FT3469 [12], 4.1 nM	2.07 ± 2	–
FT3469 [12], 12.3 nM	1.21 ± 0.86	–
FT3469 [12], 37 nM	1.04 ± 0.15	–
FT3469 [12], 111.1 nM	1.74 ± 0.2	–
FT3469 [12], 333.3 nM	1.89 ± 0.16	–
FT3469 [12], 1000 nM	2.79 ± 0.12	–
FT3469 [12], 3000 nM	3.7 ± 0.28	–

Cc1ccc(C(=O)Nc2ccc(CN3CCN(C)CC3)c(C(F)(F)F)c2)cc1C#Cc1cnc2cccnn12 [Ponatinib]
phenotypic distance
Conditions	E13 [7]	E21 [8]	E28 [9]	E31	E34 [10]	E57 [11]	FT3469 [12]
4.1 nM	1.34	2.02	0.791	0.882	1.37	3.43	1.73
12.3 nM	1.37	5.3	1.19	1.09	1.08	4.1	2.15
37 nM	1.75	1.87	1.3	2.13	1.46	3.63	1.36
111.1 nM	2.38	2.05	1.57	2.63	1.59	3.38	1.58
333.3 nM	2.71	4.01	1.29	2.59	2.93	2.19	2.72
1000 nM	3.02	9.73	2.75	11.1	3.77	4.53	4.78
3000 nM	5.54	9.25	3.32	8.04	5.85	5.68	8.72

CCC(C)(C)C(=O)O[C@H]1C[C@@H](C)C=C2C=C[C@H](C)[C@H](CC[C@@H]3C[C@@H](O)CC(=O)O3)[C@H]21 [Simvastatin]
phenotypic distance
Conditions	E13 [7]	E21 [8]	E28 [9]	E31	E34 [10]	E57 [11]	FT3469 [12]
4.1 nM	0.99	1.6	1.08	0.808	1.5	1.7	1.31
12.3 nM	0.654	1.96	1.13	0.911	1.01	0.806	1.32
37 nM	1.13	2.52	1.19	0.566	0.739	1.4	2.33
111.1 nM	1.23	2.77	1.42	1.39	0.945	0.799	1.86
333.3 nM	2.27	4.05	1.61	1	1.16	1.19	2.21
1000 nM	2.58	4.54	1.56	0.996	0.529	1.46	2.66
3000 nM	4.02	5.96	3.67	3.45	1.72	3.54	3.39

COc1cc2c(NC3CCN(C(C)C)CC3)nc(C3CCCCC3)nc2cc1OCCCN1CCCC1 [UNC0638]
Conditions	phenotypic distance	surviving fraction
E13 [1], 4.1 nM	–	0.973 ± 0.052
E13 [1], 12.3 nM	–	0.986 ± 0.072
E13 [1], 37 nM	–	0.987 ± 0.044
E13 [1], 111.1 nM	–	0.957 ± 0.046
E13 [1], 333.3 nM	–	1.01 ± 0.06
E13 [1], 1000 nM	–	0.938 ± 0.075
E13 [1], 3000 nM	–	0.894 ± 0.052
E13 [7], 4.1 nM	0.43 ± 0.14	–
E13 [7], 12.3 nM	0.523 ± 0.047	–
E13 [7], 37 nM	0.48 ± 0.18	–
E13 [7], 111.1 nM	0.587 ± 0.021	–
E13 [7], 333.3 nM	0.476 ± 0.11	–
E13 [7], 1000 nM	0.582 ± 0.19	–
E13 [7], 3000 nM	1.57 ± 1.5	–
E21 [2], 4.1 nM	–	0.976 ± 0.025
E21 [2], 12.3 nM	–	0.999 ± 0.021
E21 [2], 37 nM	–	1.11 ± 0.078
E21 [2], 111.1 nM	–	1.02 ± 0.056
E21 [2], 333.3 nM	–	0.976 ± 0.057
E21 [2], 1000 nM	–	0.933 ± 0.043
E21 [2], 3000 nM	–	0.808 ± 0.079
E21 [8], 4.1 nM	0.389 ± 0.17	–
E21 [8], 12.3 nM	0.354 ± 0.025	–
E21 [8], 37 nM	0.463 ± 0.036	–
E21 [8], 111.1 nM	1.99 ± 1.9	–
E21 [8], 333.3 nM	0.574 ± 0.19	–
E21 [8], 1000 nM	0.957 ± 0.4	–
E21 [8], 3000 nM	2.1 ± 1.1	–
E28 [3], 4.1 nM	–	1.03 ± 0.059
E28 [3], 12.3 nM	–	0.988 ± 0.021
E28 [3], 37 nM	–	1.01 ± 0.04
E28 [3], 111.1 nM	–	1.01 ± 0.13
E28 [3], 333.3 nM	–	0.967 ± 0.024
E28 [3], 1000 nM	–	1.03 ± 0.03
E28 [3], 3000 nM	–	0.942 ± 0.11
E28 [9], 4.1 nM	0.389 ± 0.055	–
E28 [9], 12.3 nM	0.447 ± 0.013	–
E28 [9], 37 nM	0.394 ± 0.089	–
E28 [9], 111.1 nM	0.488 ± 0.12	–
E28 [9], 333.3 nM	0.53 ± 0.16	–
E28 [9], 1000 nM	0.586 ± 0.16	–
E28 [9], 3000 nM	1.38 ± 0.079	–
E34 [4], 4.1 nM	–	0.998 ± 0.042
E34 [4], 12.3 nM	–	1.1 ± 0.037
E34 [4], 37 nM	–	1.082 ± 0.0079
E34 [4], 111.1 nM	–	1.07 ± 0.13
E34 [4], 333.3 nM	–	1.15 ± 0.087
E34 [4], 1000 nM	–	1.07 ± 0.028
E34 [4], 3000 nM	–	0.964 ± 0.085
E34 [10], 4.1 nM	0.461 ± 0.039	–
E34 [10], 12.3 nM	0.632 ± 0.034	–
E34 [10], 37 nM	0.627 ± 0.069	–
E34 [10], 111.1 nM	0.646 ± 0.2	–
E34 [10], 333.3 nM	0.795 ± 0.19	–
E34 [10], 1000 nM	0.627 ± 0.16	–
E34 [10], 3000 nM	0.864 ± 0.011	–
E57 [5], 4.1 nM	–	1.03 ± 0.0031
E57 [5], 12.3 nM	–	1.02 ± 0.035
E57 [5], 37 nM	–	1.084 ± 0.0082
E57 [5], 111.1 nM	–	1.01 ± 0.046
E57 [5], 333.3 nM	–	1.0497 ± 0.00039
E57 [5], 1000 nM	–	1.08 ± 0.036
E57 [5], 3000 nM	–	1.05 ± 0.12
E57 [11], 4.1 nM	0.284 ± 0.097	–
E57 [11], 12.3 nM	0.449 ± 0.097	–
E57 [11], 37 nM	0.421 ± 0.22	–
E57 [11], 111.1 nM	0.484 ± 0.01	–
E57 [11], 333.3 nM	0.486 ± 0.04	–
E57 [11], 1000 nM	0.443 ± 0.059	–
E57 [11], 3000 nM	1.09 ± 0.84	–
FT3469 [6], 4.1 nM	–	1.03 ± 0.046
FT3469 [6], 12.3 nM	–	1.02 ± 0.1
FT3469 [6], 37 nM	–	0.961 ± 0.01
FT3469 [6], 111.1 nM	–	0.975 ± 0.035
FT3469 [6], 333.3 nM	–	0.953 ± 0.046
FT3469 [6], 1000 nM	–	0.929 ± 0.08
FT3469 [6], 3000 nM	–	0.864 ± 0.018
FT3469 [12], 4.1 nM	0.514 ± 0.037	–
FT3469 [12], 12.3 nM	0.766 ± 0.21	–
FT3469 [12], 37 nM	0.527 ± 0.14	–
FT3469 [12], 111.1 nM	0.558 ± 0.044	–
FT3469 [12], 333.3 nM	0.523 ± 0.12	–
FT3469 [12], 1000 nM	0.714 ± 0.2	–
FT3469 [12], 3000 nM	3.19 ± 1.4	–
